Reference: US5827516A, “Immunomodulatory peptides” (President and Fellows of Harvard College, priority 1995, dated 1998)
Ends that are not written are not given here.

Assays:
HLA-DR1 [1] = target: T1, HLA-DR1 (Homo sapiens, UniProt P01903+P01911, A100R/D57E/F55L/F60I/F76Y/I96L/L162R/M171V/P40L/Q125E/R42F/V115G/Y59C); test: Competition against 125I-labeled HA 307-319 for binding to "empty" HLA-DR1
T1 construct: made in house; host or cells: Sf9 insect cells

HLA-DR1 [2] = target: T1, HLA-DR1; test: Resistance to SDS-induced chain dissociation of HLA-DR1 (SDS-PAGE); assay type: binding

| Molecule | Ki (HLA-DR1 [1]) [nM] | further results |
| --- | --- | --- |
| SDLSFSKDWSFYL [β2 m 52-64, reference compound] | > 10000 |  |
| VGSDWRFLRGYHQYA [HLA-A2 103-117] | 49 ± 3 |  |
| KMRMATPLLMQALPM [Ii 106-120] | < 10 |  |
| Ii 107-120: Ii peptide named in the text as the highest-affinity competitor; probably the Ii 106-120 entry of Table 2 (MRMATPLLMQALPM) |  | relative binding affinity to DR1 among competitor peptides (HLA-DR1 [1]; at first approximation, equivalent to control HA peptide): highest affinity of all the competitor peptides measured |
| CSCC[C@H](NC(=O)[C@H](CCCNC(=N)N)NC(=O)[C@H](CCSC)NC(=O)[C@H](CCCCN)NC(=O)[C@H](CO)NC(=O)[C@@H](NC(=O)[C@@H]1CCCN1C(=O)[C@H](CCCCN)NC(=O)[C@@H]1CCCN1C(=O)[C@@H]1CCCN1C(=O)[C@H](CCCCN)NC(=O)[C@@H]1CCCN1C(=O)[C@@H](N)CC(C)C)C(C)C)C(=O)N[C@@H](C)C(=O)N[C@H](C(=O)O)[C@@H](C)O [Ii 97-111, reference compound] |  | able to confer resistance to SDS-induced α-β chain dissociation of "empty" DR1 (HLA-DR1 [2]): Neither; able to compete with HA 307-319 for binding to DR1 (HLA-DR1 [1]): Neither |
| IPADLRIISANGCKVDNS [Na+/K+ ATPase 199-216] | 68 ± 9 |  |
| RVEYHFLSPYVSPKESP [Transf. Recept. 680-696] | < 10 |  |
| LPKPPKPVSKMRMATPLLMQALPM [Ii 98-121] | 33 ± 5 |  |
